Reference: patent publication US8906925B2, “Pyrido[4,3-B]indoles containing rigid moieties” (Medivation Technologies, Inc., priority 2008, dated 2014)
Like-named read-outs stand apart in the source and are kept apart here.

Columns and labels:
[1] = target: T1, human recombinant adrenergic α2A receptor (Homo sapiens, UniProt P08913); assay: Adrenergic α2A radioligand binding ([3H]MK-912); conditions: compound at 1 μM
T1 construct: expressed in transfected cells; host or cells: insect Sf9 cells
T1 sequence (P08913 1-465): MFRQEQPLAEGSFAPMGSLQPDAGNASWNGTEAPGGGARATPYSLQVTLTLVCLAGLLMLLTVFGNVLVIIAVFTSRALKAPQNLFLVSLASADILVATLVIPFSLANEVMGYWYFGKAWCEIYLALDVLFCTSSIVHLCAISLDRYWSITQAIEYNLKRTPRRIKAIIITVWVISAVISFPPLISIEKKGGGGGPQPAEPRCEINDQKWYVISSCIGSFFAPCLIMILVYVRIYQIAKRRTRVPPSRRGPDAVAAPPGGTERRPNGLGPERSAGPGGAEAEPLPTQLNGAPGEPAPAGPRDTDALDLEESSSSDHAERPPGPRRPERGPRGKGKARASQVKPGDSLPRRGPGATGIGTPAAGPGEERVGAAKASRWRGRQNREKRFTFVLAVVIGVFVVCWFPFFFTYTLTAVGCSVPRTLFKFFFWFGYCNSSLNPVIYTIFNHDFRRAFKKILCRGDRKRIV
In short: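 Sf9-expressed human receptor in 50 mM Tris-HCl pH 7.4, 12.5 mM MgCl2, 2 mM EDTA; compounds at 1 μM or lower (1% DMSO) incubated with 1 nM [3H]MK-912 for 60 min at 25° C. Non-specific binding defined with 10 μM WB-4101; filtered bound radioactivity counted, reported as percent inhibition of specific binding.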

[2] = target: T2, human recombinant adrenergic α2B receptor (Homo sapiens, UniProt P18089); assay: Adrenergic α2B radioligand binding ([3H]Rauwolscine); conditions: compound at 1 μM
T2 construct: expressed in transfected cells; host or cells: Chinese hamster ovary (CHO-K1) cells
T2 sequence (P18089 1-450): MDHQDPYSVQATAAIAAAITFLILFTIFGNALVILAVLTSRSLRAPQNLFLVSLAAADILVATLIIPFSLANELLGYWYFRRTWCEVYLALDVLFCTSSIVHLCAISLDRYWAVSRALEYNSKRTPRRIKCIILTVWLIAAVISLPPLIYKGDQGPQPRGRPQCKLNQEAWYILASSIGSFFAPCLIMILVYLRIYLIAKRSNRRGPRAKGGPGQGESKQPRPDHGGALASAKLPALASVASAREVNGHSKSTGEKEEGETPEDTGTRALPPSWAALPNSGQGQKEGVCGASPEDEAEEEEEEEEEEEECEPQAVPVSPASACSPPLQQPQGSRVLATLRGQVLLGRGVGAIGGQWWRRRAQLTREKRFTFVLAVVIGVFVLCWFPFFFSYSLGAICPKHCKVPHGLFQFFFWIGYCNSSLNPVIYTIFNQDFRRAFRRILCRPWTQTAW
In short: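 Membranes from CHO-K1 cells expressing the receptor were incubated with 2.5 nM [3H]Rauwolscine for 60 min at 25 °C in Tris-HCl buffer pH 7.4 with MgCl2, EDTA and BSA. Non-specific binding was defined with 10 μM prazosin. Compounds were tested at ≤1 μM in 1% DMSO and read out as % inhibition of specific binding after filtration.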

[3] = target: histamine receptor H1 (Homo sapiens, UniProt P35367); assay: Histamine H1 radioligand binding ([3H]Pyrilamine); conditions: read-out: Histamine Binding (1 μM) H1, percent inhibition of specific binding, 1 μM
In short: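 Values are percent inhibition of specific [3H]pyrilamine (1.2 nM) binding with compounds at ≤1 μM (1% DMSO vehicle); 180 min incubation at 25 °C, pH 7.4 Tris buffer, on CHO-expressed human H1 receptor; 1 μM pyrilamine defined nonspecific binding, bound ligand counted after filtration.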

[4] = target: T3, human recombinant serotonin (5-Hydroxytryptamine) 5-HT2A receptor (Homo sapiens, UniProt P28223); assay: Serotonin 5-HT2A radioligand binding ([3H]Ketanserin); conditions: read-out: Inhibition of ligand binding, Serotonin 5-HT2A (percent inhibition of specific binding), compound at 1 μM
T3 construct: expressed in transfected cells; host or cells: Chinese hamster ovary (CHO-K1) cells
Protocol: Compounds of the invention were incubated with 0.5 nM [^3H]Ketanserin for 60 min. at 25° C. Non-specific binding was estimated in the presence of 1 μM Mianserin. Receptor proteins were filtered and washed, the filters were then counted to determine [^3H]Ketanserin specifically bound.

[5] = target: T4, human recombinant histamine H2 receptor (Homo sapiens, UniProt P25021); assay: Histamine H2 radioligand binding ([125I]Aminopotentidine); conditions: read-out: Histamine Binding (1 μM) H2, percent inhibition of specific binding, 1 μM
T4 construct: expressed in transfected cells; host or cells: Chinese hamster ovary (CHO) K1 cells
In short: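 Receptor source: human recombinant H2 in CHO-K1 cells, assayed in 50 mM phosphate pH 7.4. Competition against 0.1 nM [125I]aminopotentidine, 120 min, 25 °C; 3 μM tiotidine sets nonspecific binding, filter-bound counts give specific binding.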

[6] = percent inhibition of specific binding, read-out: Inhibition of ligand binding, Adrenergic α2A
[7] = percent inhibition of specific binding, read-out: Inhibition of ligand binding, Adrenergic α2B

T3 sequence (P28223 whole entry): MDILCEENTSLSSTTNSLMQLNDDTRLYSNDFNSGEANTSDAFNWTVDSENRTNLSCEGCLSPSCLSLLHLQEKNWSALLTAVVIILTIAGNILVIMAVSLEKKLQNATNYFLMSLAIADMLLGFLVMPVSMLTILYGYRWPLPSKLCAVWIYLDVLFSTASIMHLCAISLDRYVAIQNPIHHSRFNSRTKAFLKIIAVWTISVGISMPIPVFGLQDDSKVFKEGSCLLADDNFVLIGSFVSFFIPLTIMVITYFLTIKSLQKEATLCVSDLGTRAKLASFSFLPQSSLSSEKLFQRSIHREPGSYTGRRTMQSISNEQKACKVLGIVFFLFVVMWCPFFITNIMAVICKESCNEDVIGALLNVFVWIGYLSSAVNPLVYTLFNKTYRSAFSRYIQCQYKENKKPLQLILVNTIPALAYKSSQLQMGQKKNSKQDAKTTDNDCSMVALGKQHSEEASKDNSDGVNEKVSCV
histamine receptor H1, sequence (P35367 whole entry): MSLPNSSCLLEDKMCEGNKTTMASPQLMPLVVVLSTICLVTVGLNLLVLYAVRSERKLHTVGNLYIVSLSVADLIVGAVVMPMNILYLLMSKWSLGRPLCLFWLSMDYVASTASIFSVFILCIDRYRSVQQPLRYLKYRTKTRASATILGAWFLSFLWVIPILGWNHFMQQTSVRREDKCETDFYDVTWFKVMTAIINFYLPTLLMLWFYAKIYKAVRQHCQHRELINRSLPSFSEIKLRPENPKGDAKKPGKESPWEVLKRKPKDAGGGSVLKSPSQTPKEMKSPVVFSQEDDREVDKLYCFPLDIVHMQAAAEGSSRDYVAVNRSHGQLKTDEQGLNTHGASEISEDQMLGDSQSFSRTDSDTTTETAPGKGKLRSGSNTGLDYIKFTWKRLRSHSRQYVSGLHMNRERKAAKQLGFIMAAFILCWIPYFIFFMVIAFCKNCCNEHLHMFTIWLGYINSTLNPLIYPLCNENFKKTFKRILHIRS
T4 sequence (P25021 whole entry): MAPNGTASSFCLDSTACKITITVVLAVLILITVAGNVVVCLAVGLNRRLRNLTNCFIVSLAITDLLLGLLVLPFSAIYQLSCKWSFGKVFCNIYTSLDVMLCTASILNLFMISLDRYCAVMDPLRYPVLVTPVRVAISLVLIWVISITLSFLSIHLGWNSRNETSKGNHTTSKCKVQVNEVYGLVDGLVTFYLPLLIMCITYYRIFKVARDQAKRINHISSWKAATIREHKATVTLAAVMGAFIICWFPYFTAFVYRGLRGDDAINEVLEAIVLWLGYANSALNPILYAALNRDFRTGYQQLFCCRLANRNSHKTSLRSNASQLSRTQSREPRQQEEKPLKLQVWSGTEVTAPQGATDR

Structure (SMILES) | inhibition at 1 µM ([1]; read-out: Inhibition of ligand binding, Adrenergic α2A (percent inhibition of specific binding)) | inhibition at 1 µM ([2]; […] [3H]Rauwolscine, read-out: Inhibition of ligand binding, Adrenergic α2B (percent inhibition of specific binding)) | inhibition at 1 µM [3] | inhibition at 1 µM [4] | inhibition at 1 µM [5] | inhibition at 1 µM [1, 6] | inhibition at 1 µM [2, 7]
Cc1ccc2c(c1)c1c(n2CC#Cc2ccccn2)CCN(C)C1 [Compound No. 500, 2,3,4,5-tetrahydro-2,8-dimethyl-5-(3-(pyridin-2-yl)prop-2-ynyl)-1H-pyrido[4,3-b]indole] | 72% | 23% | 70% | 40% | 30% |  | 
Cc1ccc2c(c1)c1c(n2/C=C/c2ccc(C)nc2)CCN(C)C1 [compound 95, 2,3,4,5-tetrahydro-2,8-dimethyl-5-((E)-2-(6-methylpyridin-3-yl)vinyl)-1H-pyrido[4,3-b]indole] |  |  | 85% | 91% | 41% | 95% | 103%
C/C(=C\n1c2c(c3cc(Cl)ccc31)CN(C)CC2)c1ccccc1 [compound 106, (E)-8-chloro-2,3,4,5-tetrahydro-2-methyl-5-(2-phenylprop-1-enyl)-1H-pyrido[4,3-b]indole] |  |  | 84% | 98% | 99% | 93% | 114%
